Experiments:
[1] = Potentiometric titration, stability constants of the Zn, Lysine, SLS system; settings: 25C, 50:50 glycerin:de-ionized water, 100 mM KNO3, 5 mM Zn
S. mutans = experiment: Metabolic inhibition of S. mutans (autotitrator base consumption after glucose); assay type: cell-based; settings: for % Metabolic Reduction: S. mutans in 135 mM KCl, final zinc concentration 2.5 ppm (SLS equimolar to LS in Zn(Lys)2(LS)2), pH 7, 30 minutes, vs control containing only bacteria
Description: The chelation of zinc can modify its efficacy as an antibacterial agent. […] S. mutans is one of the prevalent bacteria present in the oral cavity. A concentrated suspension of S. mutans in 135 mM KCl was treated with a known concentration of zinc salt to obtain a final zinc concentration of 2.5 ppm. […] Using an autotitrator (Methrom Titrando 902) equipped with a 0.01M solution of KOH, the bacterial suspension was equilibrated to pH=7. After equilibrating, glucose was added to the solution. The autotitrator maintained the pH at 7 through the precise addition of KOH solution. The experiment was allowed to proceed for 30 minutes and the volume of base added was recorded at 10 second intervals. After 30 mins, a growth curve of base addition over time was obtained. The area under this curve was compared to the area under the curve for a control sample containing only bacteria and used to calculate a % reduction value. The control sample was analyzed from the same bacterial suspension as the test sample and the two samples were analyzed within 3 hours of each other. In order for data from a given suspension of S. mutans to be included, the control sample must consume at least 5 mL of base solution during the 30 minute time period.

Row | Molecule | Log(B) stability constant [1] | % Metabolic Reduction (S. mutans) | antibacterial performance compared to corresponding zinc-amino acid complex (S. mutans; S. mutans metabolic reduction, Table 10)
1 | NCCCC[C@H](N)C(=O)O [HLys] | 10.07 | – | –
2 | CCCCCCCCCCCCOS(=O)(=O)[O-].[Na+] [Sodium lauryl sulfate, sodium lauryl sulfate] | – | 34.12 ± 1.56% | –
3 | NCCCCC(N)C(=O)O.NCCCCC(N)C(=O)O.[Cl-].[Cl-].[Zn+2] (stereo not shown) [ZLC, [Zn(C6H14N2O2)2Cl]^+Cl^−] | – | 53.90 ± 2.36% | –
4 | O=[N+]([O-])[O-].O=[N+]([O-])[O-].[Zn+2] [Zn(NO3)2] | – | 67.16 ± 2.49% | –
5 | zinc arginate [[Zn(Arg)2]^2+] | – | 67.19 ± 0.32% | –
6 | zinc-arginine-lauryl sulfate [Zn(Arg)2(LS)2] | – | 72.53 ± 3.76% | directionally improved antibacterial performance compared to [Zn(Arg)2]^2+

— patent US11904040B2, “Zinc-amino acid-lauryl sulfate complex with antimicrobial activity” (Colgate-Palmolive Company, priority 2018, dated 2024)
